Measurements taken from PMC7782793, “Hydroxamic acid-modified peptide microarrays for profiling isozyme-selective interactions and inhibition of histone deacetylases” (Nature Communications, 2021).
Values joined by “and” are separate entries in the source; they are usually repeats but may differ in a detail not shown here. Equal entries are not always repeated. Marks after values point to notes of the source that are not given here. Non-standard residues stand in square brackets, D forms with d. Residues, ends and D or L forms follow the SMILES beside them. *: point of attachment. Asu = N[C@@H](CCCCCC(=O)O)C(=O)O; NHOH = ON*

Legend:
Type in all cases: biochemical
HDAC3/NCoR2 = molecular target: T1, HDAC3/NCoR2 (Homo sapiens, UniProt O15379); assay: HDAC inhibition assay (fluorogenic, Ac-Leu-Gly-Lys(Ac)-AMC); conditions: for HDAC3 dose-response data (relative enzyme activity), Fig. 6 + S. Fig. 10: duplicate columns
T1 construct: HDAC3/NCoR2 (full length, C-terminal His tag, NCoR2 N-terminal GST tag); purchased BPS Bioscience 50003

HDAC8 = molecular target: T2, HDAC8 (Homo sapiens, UniProt Q9BY41); assay: HDAC inhibition assay (fluorogenic, Ac-Leu-Gly-Lys(Tfa)-AMC); conditions: for HDAC8 dose-response data (relative enzyme activity, replicate values), Fig. 6 + S. Fig. 10: two replicate columns per inhibitor; for HDAC8 dose-response data (relative enzyme activity), Fig. 6 + S. Fig. 10: duplicate columns
T2 construct: HDAC8 (full length, C-terminal His tag, BPS Bioscience, cat. #: 50008); purchased BPS Bioscience 50008
T2 sequence (Q9BY41 1-377): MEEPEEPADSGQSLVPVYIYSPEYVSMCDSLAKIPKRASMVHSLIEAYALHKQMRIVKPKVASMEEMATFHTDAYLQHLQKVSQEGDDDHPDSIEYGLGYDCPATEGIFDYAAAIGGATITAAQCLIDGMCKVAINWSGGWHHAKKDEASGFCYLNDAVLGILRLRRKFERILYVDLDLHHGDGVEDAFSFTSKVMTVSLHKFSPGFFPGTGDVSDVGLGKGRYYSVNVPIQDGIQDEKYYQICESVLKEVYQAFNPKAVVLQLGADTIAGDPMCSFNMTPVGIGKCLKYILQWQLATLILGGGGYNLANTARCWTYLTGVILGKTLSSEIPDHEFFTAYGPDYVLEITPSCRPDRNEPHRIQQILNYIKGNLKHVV

HDAC6 = molecular target: T3, HDAC6 (Homo sapiens, UniProt Q9UBN7); assay: HDAC inhibition assay (fluorogenic, Ac-Leu-Gly-Lys(Ac)-AMC); conditions: HDAC6, replicates
T3 construct: HDAC6 (full length, BPS Bioscience, cat. #: 50056); purchased BPS Bioscience 50056
T3 sequence (Q9UBN7 1-1215): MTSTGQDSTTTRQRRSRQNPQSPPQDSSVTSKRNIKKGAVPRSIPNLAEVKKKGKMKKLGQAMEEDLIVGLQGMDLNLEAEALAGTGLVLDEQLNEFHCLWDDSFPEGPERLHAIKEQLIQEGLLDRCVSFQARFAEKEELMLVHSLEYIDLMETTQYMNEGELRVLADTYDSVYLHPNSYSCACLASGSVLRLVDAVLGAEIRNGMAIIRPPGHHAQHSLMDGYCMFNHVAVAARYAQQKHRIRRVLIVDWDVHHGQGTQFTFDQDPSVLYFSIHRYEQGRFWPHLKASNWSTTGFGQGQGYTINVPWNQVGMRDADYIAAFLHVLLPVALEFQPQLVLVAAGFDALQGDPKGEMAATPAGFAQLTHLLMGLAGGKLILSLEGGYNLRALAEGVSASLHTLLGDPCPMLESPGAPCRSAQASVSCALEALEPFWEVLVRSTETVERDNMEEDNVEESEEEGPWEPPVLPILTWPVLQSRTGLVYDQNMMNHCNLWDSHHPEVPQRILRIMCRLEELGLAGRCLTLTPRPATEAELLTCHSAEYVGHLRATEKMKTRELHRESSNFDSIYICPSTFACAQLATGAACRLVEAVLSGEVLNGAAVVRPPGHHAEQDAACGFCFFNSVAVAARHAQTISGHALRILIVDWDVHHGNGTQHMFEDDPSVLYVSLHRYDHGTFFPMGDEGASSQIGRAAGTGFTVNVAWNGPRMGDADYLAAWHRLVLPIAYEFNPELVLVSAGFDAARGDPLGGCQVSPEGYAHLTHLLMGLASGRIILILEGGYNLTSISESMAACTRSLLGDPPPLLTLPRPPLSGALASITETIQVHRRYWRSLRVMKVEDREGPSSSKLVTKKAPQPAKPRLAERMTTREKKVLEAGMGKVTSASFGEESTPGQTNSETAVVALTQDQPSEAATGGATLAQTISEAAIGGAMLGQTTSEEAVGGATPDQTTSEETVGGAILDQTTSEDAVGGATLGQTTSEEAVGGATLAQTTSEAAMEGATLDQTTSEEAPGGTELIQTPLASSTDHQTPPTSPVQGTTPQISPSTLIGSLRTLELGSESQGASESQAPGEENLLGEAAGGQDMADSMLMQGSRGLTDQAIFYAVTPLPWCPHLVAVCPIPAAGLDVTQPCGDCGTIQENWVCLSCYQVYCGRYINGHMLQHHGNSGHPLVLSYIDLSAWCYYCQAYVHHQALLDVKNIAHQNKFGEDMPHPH

T1 sequence (O15379 whole entry): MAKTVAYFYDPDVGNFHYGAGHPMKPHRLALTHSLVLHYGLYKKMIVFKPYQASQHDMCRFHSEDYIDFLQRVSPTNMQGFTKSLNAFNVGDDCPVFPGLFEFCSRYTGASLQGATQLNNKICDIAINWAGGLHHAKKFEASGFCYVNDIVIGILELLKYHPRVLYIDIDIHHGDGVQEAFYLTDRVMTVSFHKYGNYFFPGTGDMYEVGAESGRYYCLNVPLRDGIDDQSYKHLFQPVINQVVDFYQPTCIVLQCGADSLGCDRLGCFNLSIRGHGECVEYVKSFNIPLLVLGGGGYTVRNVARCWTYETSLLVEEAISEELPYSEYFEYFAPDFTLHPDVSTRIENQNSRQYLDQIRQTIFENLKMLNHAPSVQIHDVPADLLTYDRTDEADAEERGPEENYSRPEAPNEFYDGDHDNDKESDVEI
T1 sequence (Q9Y618 389-480 partner limits assumed): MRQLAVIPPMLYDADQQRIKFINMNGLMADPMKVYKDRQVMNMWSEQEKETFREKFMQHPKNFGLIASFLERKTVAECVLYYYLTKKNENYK

`CC[C@H](C)[C@H](NC(=O)[C@H](CCC(=O)O)NC(=O)[C@H](CCCNC(=N)N)NC(=O)[C@H](CO)NC(=O)[C@@H](NC(=O)[C@@H](NC(=O)[C@@H](NC(=O)[C@H](CO)NC(=O)[C@H](CCCNC(=N)N)NC(=O)[C@H](CCCCCC(=O)NO)NC(=O)[C@H](CC(N)=O)NC(=O)[C@H](Cc1ccc(O)cc1)NC(=O)[C@H](Cc1c[nH]cn1)NC(C)=O)[C@@H](C)O)[C@@H](C)CC)[C@@H](C)O)C(=O)N[C@@H](CCC(N)=O)C(=O)N[C@H](C(=O)N[C@@H](C)C(=O)N[C@@H](Cc1c[nH]c2ccccc12)C(N)=O)[C@@H](C)O` [12a] (Ac-HYN[Asu](NHOH)RSTITSREIQTAW-NH2) was tested, and the “HDAC3 dose-response data (relative enzyme activity), Fig. 6 + S. Fig. 10” value (HDAC3/NCoR2; log[inhibitor(M)] -7.79588) was 73.2464 and 64.9902, the “HDAC3 dose-response data (relative enzyme activity), Fig. 6 + S. Fig. 10” value (HDAC3/NCoR2; log[inhibitor(M)] -8.49485) was 93.6652 and 87.0389 and the “HDAC3 dose-response data (relative enzyme activity), Fig. 6 + S. Fig. 10” value (HDAC3/NCoR2; log[inhibitor(M)] -9.19382) was 96.2351 and 93.241. The “HDAC3 dose-response data (relative enzyme activity), Fig. 6 + S. Fig. 10” value (HDAC3/NCoR2; log[inhibitor(M)] -9.89279) was 95.5729 and 96.0845, the “HDAC3 dose-response data (relative enzyme activity), Fig. 6 + S. Fig. 10” value (HDAC3/NCoR2; log[inhibitor(M)] -10,5850266520292*, whole line marked with asterisks) was 103,997369* and 102,157851* and the “selectivity for HDAC3 vs. HDACs 1 and 2” value (HDAC3/NCoR2; resynthesized peptides, from Ki) was ~ 2 fold. The Ki (HDAC8) was 672 ± 2 nM, the “HDAC8 dose-response data (relative enzyme activity, replicate values), Fig. 6 + S. Fig. 10” value (HDAC8; Inhibitor conc [M] -8.49485 (log)) was 96.596 and 95.5531 and the “HDAC8 dose-response data (relative enzyme activity, replicate values), Fig. 6 + S. Fig. 10” value (HDAC8; Inhibitor conc [M] -9.19382 (log)) was 96.9206 and 97.7957. For the same compound, the “HDAC8 dose-response data (relative enzyme activity, replicate values), Fig. 6 + S. Fig. 10” value (HDAC8; Inhibitor conc [M] given as -7.09691 (log)) was 89.149 and 90.0695, the “HDAC8 dose-response data (relative enzyme activity, replicate values), Fig. 6 + S. Fig. 10” value (HDAC8; Inhibitor conc [M] given as -7.79588 (log)) was 96.5655 and 96.7922 and the “HDAC8 dose-response data (relative enzyme activity, replicate values), Fig. 6 + S. Fig. 10” value (HDAC8; Inhibitor conc [M] given as -9.89279 (log)) was 97.4718 and 97.8478. For the same compound, the “HDAC8 dose-response data (relative enzyme activity, replicate values), Fig. 6 + S. Fig. 10” value (HDAC8; Inhibitor conc [M] given as -10.585 (log)) was 100,321515* and 100,605272*, the “HDAC8 dose-response data (relative enzyme activity), Fig. 6 + S. Fig. 10” value (HDAC8; Inhibitor conc [M] -4.30103) was 4.131 and 3.99 and the “HDAC8 dose-response data (relative enzyme activity), Fig. 6 + S. Fig. 10” value (HDAC8; Inhibitor conc [M] -5) was 13.2204 and 13.7487. The “HDAC8 dose-response data (relative enzyme activity), Fig. 6 + S. Fig. 10” value (HDAC8; Inhibitor conc [M] -5.69897) was 34.8849 and 37.2156, the “HDAC8 dose-response data (relative enzyme activity), Fig. 6 + S. Fig. 10” value (HDAC8; Inhibitor conc [M] -6.39794) was 67.169 and 68.3219 and the “residual enzymatic activity relative to control wells” value (HDAC6; log[inhibitor(M)] -4.30103) was 1.727 and 0.8308. The “residual enzymatic activity relative to control wells” value (HDAC6; log[inhibitor(M)] -5) was 2.004 and 3.233, the “residual enzymatic activity relative to control wells” value (HDAC6; log[inhibitor(M)] -5.69897) was 5.047 and 6.177 and the “residual enzymatic activity relative to control wells” value (HDAC6; log[inhibitor(M)] -6.39794) was 15.6412 and 12.824. The “residual enzymatic activity relative to control wells” value (HDAC6; log[inhibitor(M)] -7.09691) was 40.6476 and 34.5345, the “residual enzymatic activity relative to control wells” value (HDAC6; log[inhibitor(M)] -7.79588) was 71.7467 and 73.0064 and the “residual enzymatic activity relative to control wells” value (HDAC6; log[inhibitor(M)] -8.49485) was 80.6815 and 89.6415. The “residual enzymatic activity relative to control wells” value (HDAC6; log[inhibitor(M)] -9.19382) was 82.3274 and 88.4313, the “residual enzymatic activity relative to control wells” value (HDAC6; log[inhibitor(M)] -9.89279) was 83.6621 and 89.4789 and the “residual enzymatic activity relative to control wells” value (HDAC6; log[inhibitor(M)] -10.585) was 102.86 and 101.255.
